The structures appear in SMILES notation. pIC50: −log10 of the molar value.

For the assay, the target named is H1047R PIK3CA enzyme (Homo sapiens, UniProt P42336, H1047R). As to the kind of experiment: ADP-Glo Biochemical PIK3CA Kinase Assay. The settings on record: ADP-Glo biochemical PIK3CA kinase assay.
H1047R PIK3CA enzyme, sequence (P42336 whole entry H1047R): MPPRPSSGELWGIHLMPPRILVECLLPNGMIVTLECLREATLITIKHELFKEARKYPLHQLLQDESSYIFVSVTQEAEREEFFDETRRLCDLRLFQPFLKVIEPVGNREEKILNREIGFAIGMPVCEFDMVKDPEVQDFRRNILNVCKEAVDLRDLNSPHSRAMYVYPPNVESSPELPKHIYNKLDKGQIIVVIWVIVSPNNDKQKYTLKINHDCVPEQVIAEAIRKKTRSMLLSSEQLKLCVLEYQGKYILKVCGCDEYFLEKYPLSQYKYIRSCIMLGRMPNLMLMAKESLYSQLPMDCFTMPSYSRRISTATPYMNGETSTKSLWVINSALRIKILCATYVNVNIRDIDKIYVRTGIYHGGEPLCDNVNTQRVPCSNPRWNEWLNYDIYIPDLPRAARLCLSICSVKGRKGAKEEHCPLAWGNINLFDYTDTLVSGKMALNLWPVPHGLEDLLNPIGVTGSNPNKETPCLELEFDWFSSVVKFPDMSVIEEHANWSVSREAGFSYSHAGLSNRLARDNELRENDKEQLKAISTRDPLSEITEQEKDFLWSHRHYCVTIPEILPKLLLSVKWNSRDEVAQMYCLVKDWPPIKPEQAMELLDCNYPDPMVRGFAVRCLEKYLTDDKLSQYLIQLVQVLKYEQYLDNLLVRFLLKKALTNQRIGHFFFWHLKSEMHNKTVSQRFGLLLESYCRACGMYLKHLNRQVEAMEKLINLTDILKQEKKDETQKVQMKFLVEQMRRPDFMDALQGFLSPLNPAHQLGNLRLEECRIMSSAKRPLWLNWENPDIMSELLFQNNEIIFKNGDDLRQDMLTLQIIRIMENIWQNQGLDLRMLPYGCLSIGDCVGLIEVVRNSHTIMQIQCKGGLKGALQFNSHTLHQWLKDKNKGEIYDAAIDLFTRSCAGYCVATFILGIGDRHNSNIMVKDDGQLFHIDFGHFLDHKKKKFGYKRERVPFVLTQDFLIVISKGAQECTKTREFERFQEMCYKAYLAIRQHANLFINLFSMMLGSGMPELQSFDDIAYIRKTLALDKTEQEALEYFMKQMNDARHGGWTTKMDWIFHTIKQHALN
H1047R PIK3CA enzyme, sequence (P27986 whole entry partner): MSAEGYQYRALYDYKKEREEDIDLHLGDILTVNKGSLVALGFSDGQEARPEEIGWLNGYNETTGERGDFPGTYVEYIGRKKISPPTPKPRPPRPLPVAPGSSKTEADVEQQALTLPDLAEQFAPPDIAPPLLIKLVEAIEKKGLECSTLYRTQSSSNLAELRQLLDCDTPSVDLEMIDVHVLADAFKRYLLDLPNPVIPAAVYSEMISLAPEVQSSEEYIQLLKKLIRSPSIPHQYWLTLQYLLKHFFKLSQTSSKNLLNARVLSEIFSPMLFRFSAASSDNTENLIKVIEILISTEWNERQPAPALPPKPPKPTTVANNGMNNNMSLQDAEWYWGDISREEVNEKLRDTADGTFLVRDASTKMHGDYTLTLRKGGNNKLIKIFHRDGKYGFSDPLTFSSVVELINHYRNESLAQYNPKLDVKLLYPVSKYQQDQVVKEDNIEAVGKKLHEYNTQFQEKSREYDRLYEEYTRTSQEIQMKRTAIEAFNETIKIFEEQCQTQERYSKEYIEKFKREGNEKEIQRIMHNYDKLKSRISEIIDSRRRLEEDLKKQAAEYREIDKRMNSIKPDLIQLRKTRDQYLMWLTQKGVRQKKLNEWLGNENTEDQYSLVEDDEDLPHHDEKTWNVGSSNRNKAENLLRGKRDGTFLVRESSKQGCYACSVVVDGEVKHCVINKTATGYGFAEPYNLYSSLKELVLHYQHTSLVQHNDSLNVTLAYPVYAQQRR

Broadly, the pIC50 is the negative decadic logarithm of the IC50, by convention in mol/L. `Cc1ccccc1Nc1ncc(C(=O)N2CCC(C)(O)C2)cc1NC(=O)c1csc2ccccc12` (stereo not drawn) [I-589]: the pIC50 was 5.00 to 6.00.

`CNC(=O)c1cnc(Nc2ccccc2C)c(NC(=O)Cc2cc(Br)ccc2Cl)c1` [I-595] had a pIC50 of 5.00 to 6.00.

For the compound `Cc1ccccc1Nc1ncc(C(=O)N2CC(C(=O)O)C2)cc1NC(=O)c1csc2ccccc12` [I-600], the pIC50 is 5.00 to 6.00.

For the compound `Cc1ccccc1Nc1ncc(C(=O)Nc2ncnn2C)cc1NC(=O)c1csc2ccccc12` [I-606], the pIC50 was 5.00 to 6.00.

Take `Cc1cc(CC(C)NC(=O)c2cnc(Nc3ccccc3C)c(NC(=O)c3csc4ccccc34)c2)on1` (stereo not drawn) [I-614]: the pIC50 is 5.00 to 6.00.

The compound `COCC1CN(C(=O)c2cnc(Nc3ccccc3C)c(NC(=O)c3csc4ccccc34)c2)C1` [I-615] gave a pIC50 of 5.00 to 6.00.

For the compound `Cc1ccccc1Nc1ncc(C(=O)N[C@H]2CC[C@]3(CCC(=O)N3)CC2)cc1NC(=O)c1csc2ccccc12` [I-617], the pIC50 is 5.00 to 6.00.

In turn, `Cc1ccccc1Nc1ncc(C(=O)N2CC(C)(O)C2)cc1NC(=O)c1csc2ccccc12` [I-620] gave a pIC50 of 5.00 to 6.00.

For `Cc1ccccc1Nc1ncc(C(=O)N2CCC(F)C2)cc1NC(=O)c1csc2ccccc12` (stereo not drawn) [I-623], the pIC50 was 6.00 to 6.30.

Consider `Cc1ccccc1Nc1ncc(C(=O)N2CC(CF)C2)cc1NC(=O)c1csc2ccccc12` [I-628], for which the pIC50 is 5.00 to 6.00.

`Cc1ccccc1Nc1ncc(C(=O)O)cc1NC(=O)c1csc2ccccc12` [I-629] showed a pIC50 of 5.00 to 6.00.

In turn, `Nc1cc(C(=O)NC2CS(=O)(=O)C2)cnc1N1CCOc2ccccc21` [I-630] showed a pIC50 of 5.00 to 6.00.

`O=C(O)c1cnc(N2CCOc3ccccc32)c(NC(=O)c2csc3ccccc23)c1` [I-631] showed a pIC50 of 5.00 to 6.00.

Compound `Nc1cc(C(=O)O)cnc1N1CCOc2ccccc21` [I-632] gave a pIC50 of 5.00 to 6.00.

`O=C(NC1CC(F)(F)C1)c1cnc(Nc2ccccc2Cl)c(NC(=O)c2csc3ccccc23)c1` [I-641] gave a pIC50 of 5.00 to 6.00.

In the case of `CNC(=O)c1cnc(Nc2ccccc2C)c(NC(=O)c2nc3cccc(C(F)(F)F)n3n2)c1` [I-642], the pIC50 was 5.00 to 6.00.

`CNC(=O)c1cnc(Nc2ccccc2C)c(NC(=O)CCc2ccncc2C)c1` [I-643] showed a pIC50 of 5.00 to 6.00.

`CNC(=O)c1cnc(Nc2ccccc2C)c(NC(=O)c2onc3ccccc23)c1` [I-644] showed a pIC50 of 5.00 to 6.00.

`CNC(=O)c1cnc(Nc2ccccc2C)c(NC(=O)c2ccc3cnccc3n2)c1` [I-645] had a pIC50 of 5.00 to 6.00.

With `CNC(=O)c1cnc(Nc2ccccc2C)c(NC(=O)Cn2ccccc2=O)c1` [I-646], the pIC50 was 5.00 to 6.00.

Compound `CNC(=O)c1cnc(Nc2ccccc2C)c(NC(=O)c2ccn3ccnc3c2)c1` [I-647] showed a pIC50 of 5.00 to 6.00.

`CNC(=O)c1cnc(Nc2ccccc2C)c(NC(=O)c2ccc3cnccc3c2)c1` [I-648] showed a pIC50 of 5.00 to 6.00.

On to `CNC(=O)c1cnc(Nc2ccccc2C)c(NC(=O)C2CCc3ccccc3O2)c1` (stereo not drawn) [I-649], for which the pIC50 was 5.00 to 6.00.

Take `CNC(=O)c1cnc(Nc2ccccc2C)c(NC(=O)c2ccnc(C(F)F)c2)c1` [I-650]: the pIC50 was 5.00 to 6.00.

In turn, `CNC(=O)c1cnc(Nc2ccccc2C)c(NC(=O)Cc2noc3ccccc23)c1` [I-651] showed a pIC50 of 5.00 to 6.00.

In turn, `CNC(=O)c1cnc(Nc2ccccc2C)c(NC(=O)c2noc3ccccc23)c1` [I-671] had a pIC50 of 5.00 to 6.00.

As to `Nc1ncc(C(=O)O)cc1NC(=O)c1csc2ccccc12` [I-673], the pIC50 was 5.00 to 6.00.

The compound `COC(=O)c1cnc(N)c(NC(=O)c2csc3ccccc23)c1` [I-674] gave a pIC50 of 5.00 to 6.00.

Regarding `Nc1ncc(C(=O)NC2CC(F)(F)C2)cc1NC(=O)c1csc2ccccc12` [I-675], the pIC50 is 5.00 to 6.00.

With `Nc1ncc(C(=O)N[C@H]2C[C@@H](C(N)=O)C2)cc1NC(=O)c1csc2ccccc12` [I-689], the pIC50 was 5.00 to 6.00.

Consider `CC(NC(=O)c1cnc(N)c(NC(=O)c2csc3ccccc23)c1)c1cn[nH]c1` (stereo not drawn) [I-690], for which the pIC50 was 5.00 to 6.00.

`Cc1ccccc1Nc1ncc(C(=O)N[C@H]2C[C@@H](C(=O)N(C)C)C2)cc1NC(=O)c1csc2ccccc12` [I-694]: the pIC50 was 5.00 to 6.00.

On to `Cc1ccccc1Nc1ncc(C(=O)NCc2ccc(Cl)cc2)cc1NC(=O)c1cc(F)cc(C(F)(F)F)c1` [I-702], for which the pIC50 was 6.00 to 6.30.

In the case of `COc1cncc(CNC(=O)c2cnc(Nc3ccccc3C)c(NC(=O)c3cc(F)cc(C(F)(F)F)c3)c2)c1` [I-707], the pIC50 is 5.00 to 6.00.

`CNC(=O)c1cnc(Nc2ccccc2C)c(NC(=O)c2ccc(C#N)c(C(F)(F)F)c2)c1` [I-710]: the pIC50 was 6.00 to 6.30.

`CNC(=O)c1cnc(Nc2ccccc2C)c(NC(=O)c2cc(F)c(C(F)(F)F)c(F)c2)c1` [I-717] showed a pIC50 of 6.00 to 6.30.

The compound `Cc1ccccc1Nc1ncc(C(=O)NCc2ncccn2)cc1NC(=O)c1cc(F)cc(C(F)(F)F)c1` [I-719] had a pIC50 of 5.00 to 6.00.

`COc1ccnc(CNC(=O)c2cnc(Nc3ccccc3C)c(NC(=O)c3cc(F)cc(C(F)(F)F)c3)c2)c1` [I-720] gave a pIC50 of 5.00 to 6.00.

`CNC(=O)c1cnc(Nc2ccccc2C)c(NC(=O)c2ccc(F)c(F)c2)c1` [I-722] showed a pIC50 of 5.00 to 6.00.

`CNC(=O)c1cnc(Nc2ccccc2C)c(NC(=O)c2ccc(C)c(F)c2)c1` [I-723] had a pIC50 of 5.00 to 6.00.

As for `COC(=O)CCS(=O)(=O)c1cnc(Nc2ccccc2C)c(NC(=O)c2cc(F)cc(C(F)(F)F)c2)c1` [I-728], the pIC50 was 5.00 to 6.00.

In turn, `CNC(=O)c1cnc(Nc2nccc3[nH]ccc23)c(NC(=O)c2csc3ccccc23)c1` [I-729] had a pIC50 of 5.00 to 6.00.

`CNC(=O)c1cnc(Nc2cnccc2C)c(NC(=O)c2csc3ccccc23)c1` [I-730]: the pIC50 is 5.00 to 6.00.

`CNC(=O)c1cnc(Nc2ncccc2C(C)C)c(NC(=O)c2csc3ccccc23)c1` [I-731] gave a pIC50 of 5.00 to 6.00.

In the case of `CNC(=O)c1cnc(Nc2c3c(nn2C)CCCC3)c(NC(=O)c2csc3ccccc23)c1` [I-732], the pIC50 is 5.00 to 6.00.

`CNC(=O)c1cnc(Nc2ccc3c(c2)COC3)c(NC(=O)c2csc3ccccc23)c1` [I-733] gave a pIC50 of 5.00 to 6.00.

`CCc1nccnc1Nc1ncc(C(=O)NC)cc1NC(=O)c1csc2ccccc12` [I-734] had a negative-log IC50 (pIC50) of 5.00 to 6.00.

As to `CCn1nccc1Nc1ncc(C(=O)NC)cc1NC(=O)c1csc2ccccc12` [I-735], the negative-log IC50 (pIC50) is 5.00 to 6.00.

With `CNC(=O)c1cnc(Nc2ccc3cnn(C)c3c2)c(NC(=O)c2csc3ccccc23)c1` [I-736], the pIC50 was 5.00 to 6.00.

For the compound `CNC(=O)c1cnc(Nc2ccnc3c2ccn3C)c(NC(=O)c2csc3ccccc23)c1` [I-737], the pIC50 was 5.00 to 6.00.

As to `CNC(=O)c1cnc(Nc2ccc3c(c2)OCC3)c(NC(=O)c2csc3ccccc23)c1` [I-738], the pIC50 was 5.00 to 6.00.

`CNC(=O)c1cnc(Nc2cncc(F)c2)c(NC(=O)c2csc3ccccc23)c1` [I-739]: the pIC50 was 5.00 to 6.00.

Consider `CNC(=O)c1cnc(Nc2ccc3cccnc3c2)c(NC(=O)c2csc3ccccc23)c1` [I-740], for which the pIC50 was 5.00 to 6.00.

For `CNC(=O)c1cnc(Nc2cncc3ccccc23)c(NC(=O)c2csc3ccccc23)c1` [I-741], the pIC50 was 5.00 to 6.00.

In the case of `CNC(=O)c1cnc(Nc2ncccc2C2CC2)c(NC(=O)c2csc3ccccc23)c1` [I-742], the pIC50 is 5.00 to 6.00.

In turn, `CNC(=O)c1cnc(Nc2c3c(nn2C)CCC3)c(NC(=O)c2csc3ccccc23)c1` [I-743] had a pIC50 of 5.00 to 6.00.

`CNC(=O)c1cnc(Nc2ccc3c(c2)N(C)C(=O)CO3)c(NC(=O)c2csc3ccccc23)c1` [I-744] showed a pIC50 of 5.00 to 6.00.

(Values after patent US20250090540A1, “PI3K-ALPHA INHIBITORS AND METHODS OF USE THEREOF” (Relay Therapeutics, Inc., priority 2021, published 2025).)
